# Tested on: patients with advanced solid tumors
# Assay: Phase I trial: safety, tolerability, DLT, MTD (CTCAE v4.0)
# Type: in vivo
# From the text: Eligible patients had at least one measurable lesion per RECIST v 1.1, Eastern Cooperative Oncology Group (ECOG) performance status of 0 or 1, and adequate hematological, renal, cardiac and hepatic functions. The primary objectives were to assess safety and tolerability as well as to determine the MTD, DLT, and dose recommended for further study. The secondary objectives were to assess the PK and preliminary efficacy of CT053PTSA.
# An initial accelerated titration design was used in the 15 and 30 mg QD cohorts, and the “3+3” schema was used starting in the 60 mg QD cohort. […] The study protocol was approved by an institutional review board at Sun Yat-sen University Cancer Center. Written informed consent was obtained from all the patients before enrollment.
# Descriptive statistics of safety are presented per CTCAE v4.0. Subjects who received at least one dose of CT053PTSA were considered eligible to be evaluated and included in safety analyses. […] According to the RECIST 1.1 criteria, imaging examinations were performed at each specified time point in the protocol. The antitumor activity was measured by RECIST1.1.
compound,measurement,setting,value
Cc1c(C(=O)Nc2ccc(Oc3ccnc4cc(OCC(C)(C)O)ccc34)c(F)c2)c(=O)n(-c2ccccc2)n1C [CT053PTSA],"Platelet count decreased, ≥ G3",150mg (n = 5),1 (20) n (%)
same,"Proteinuria, All",150mg (n = 5),0 n (%)
same,"Proteinuria, ≥ G3",150mg (n = 5),0 n (%)
same,"Pyrexia, All",150mg (n = 5),1 (20) n (%)
same,"Pyrexia, ≥ G3",150mg (n = 5),0 n (%)
same,"Sinus bradycardia, All",150mg (n = 5),1 (20) n (%)
same,"Sinus bradycardia, ≥ G3",150mg (n = 5),0 n (%)
same,"Stomatitis, All",150mg (n = 5),1 (20) n (%)
same,"Stomatitis, ≥ G3",150mg (n = 5),1 (20) n (%)
same,"Vomiting, All",150mg (n = 5),1 (20) n (%)
same,"Vomiting, ≥ G3",150mg (n = 5),0 n (%)
same,"leukopenia, All",150mg (n = 5),3 (60) n (%)
same,"leukopenia, ≥ G3",150mg (n = 5),1 (20) n (%)
same,"neutropenia, All",150mg (n = 5),2 (40) n (%)
same,"neutropenia, ≥ G3",150mg (n = 5),0 n (%)
same,"transaminase elevation, All",150mg (n = 5),4 (80) n (%)
same,"transaminase elevation, ≥ G3",150mg (n = 5),0 n (%)
same,patients with DLT / patients eligible for DLT assessment,150 mg QD,2/4 and Two of four
same,"Anaemia, All",All (n = 20),1 (5) n (%)
same,"Anaemia, ≥ G3",All (n = 20),0 n (%)
same,"Blood chloride decreased, All",All (n = 20),1 (5) n (%)
same,"Blood chloride decreased, ≥ G3",All (n = 20),0 n (%)
same,"Blood creatinine increased, All",All (n = 20),1 (5) n (%)
same,"Blood creatinine increased, ≥ G3",All (n = 20),0 n (%)
same,"Blood potassium decreased, All",All (n = 20),1 (5) n (%)
same,"Blood potassium decreased, ≥ G3",All (n = 20),0 n (%)
same,"Blood sodium decreased, All",All (n = 20),1 (5) n (%)
same,"Blood sodium decreased, ≥ G3",All (n = 20),1 (5) n (%)
same,"Blood uric acid increased, All",All (n = 20),1 (5) n (%)
same,"Blood uric acid increased, ≥ G3",All (n = 20),0 n (%)
same,"Decreased appetite, All",All (n = 20),6 (30) n (%)
same,"Decreased appetite, ≥ G3",All (n = 20),1 (5) n (%)
same,"Diarrhea, All",All (n = 20),2 (10) n (%)
same,"Diarrhea, ≥ G3",All (n = 20),0 n (%)
same,"Dizziness, All",All (n = 20),1 (5) n (%)
same,"Dizziness, ≥ G3",All (n = 20),0 n (%)
same,"Dry mouth, All",All (n = 20),1 (5) n (%)
same,"Dry mouth, ≥ G3",All (n = 20),0 n (%)
same,"Electrocardiogram QT prolonged, All",All (n = 20),3 (15) n (%)
same,"Electrocardiogram QT prolonged, ≥ G3",All (n = 20),0 n (%)
same,"Electrolyte imbalance, All",All (n = 20),1 (5) n (%)
same,"Electrolyte imbalance, ≥ G3",All (n = 20),0 n (%)
same,"Hemoglobin decreased, All",All (n = 20),1 (5) n (%)
same,"Hemoglobin decreased, ≥ G3",All (n = 20),0 n (%)
same,"Hypertension, All",All (n = 20),4 (20) n (%)
same,"Hypertension, ≥ G3",All (n = 20),1 (5) n (%)
same,"Hyponatremia, All",All (n = 20),2 (10) n (%)
same,"Hyponatremia, ≥ G3",All (n = 20),0 n (%)
same,"Hypoparathyroidism, All",All (n = 20),1 (5) n (%)
same,"Hypoparathyroidism, ≥ G3",All (n = 20),0 n (%)
same,"Mouth ulceration, All",All (n = 20),1 (5) n (%)
same,"Mouth ulceration, ≥ G3",All (n = 20),0 n (%)
same,"Nausea, All",All (n = 20),2 (10) n (%)
same,"Nausea, ≥ G3",All (n = 20),0 n (%)
same,"Oropharyngeal pain, All",All (n = 20),1 (5) n (%)
same,"Oropharyngeal pain, ≥ G3",All (n = 20),0 n (%)
same,"Pain, All",All (n = 20),1 (5) n (%)
same,"Pain, ≥ G3",All (n = 20),0 n (%)
same,"Palmar-plantar erythrodysaesthesia syndrome, All",All (n = 20),1 (5) n (%)
same,"Palmar-plantar erythrodysaesthesia syndrome, ≥ G3",All (n = 20),0 n (%)
same,"Platelet count decreased, All",All (n = 20),6 (30) n (%)
same,"Platelet count decreased, ≥ G3",All (n = 20),2 (10) n (%)
same,"Proteinuria, All",All (n = 20),1 (5) n (%)
same,"Proteinuria, ≥ G3",All (n = 20),0 n (%)
same,"Pyrexia, All",All (n = 20),1 (5) n (%)
same,"Pyrexia, ≥ G3",All (n = 20),0 n (%)
same,"Sinus bradycardia, All",All (n = 20),1 (5) n (%)
same,"Sinus bradycardia, ≥ G3",All (n = 20),0 n (%)
same,"Stomatitis, All",All (n = 20),2 (10) n (%)
same,"Stomatitis, ≥ G3",All (n = 20),1 (5) n (%)
same,"Vomiting, All",All (n = 20),1 (5) n (%)
same,"Vomiting, ≥ G3",All (n = 20),0 n (%)
same,"leukopenia, All",All (n = 20),9 (45) n (%)
same,"leukopenia, ≥ G3",All (n = 20),1 (5) n (%)
same,"neutropenia, All",All (n = 20),7 (35) n (%)
same,"neutropenia, ≥ G3",All (n = 20),0 n (%)
same,"transaminase elevation, ≥ G3",All (n = 20),1 (5) n (%)
same,TRAE any grade: decreased appetite,all patients n = 20,30%
same,TRAE any grade: decreased platelet count,all patients n = 20,30%
same,TRAE any grade: hypertension,all patients n = 20,20%
same,TRAE any grade: leukopenia,all patients n = 20,45%
same,TRAE any grade: neutropenia,all patients n = 20,35%
same,TRAE any grade: transaminase elevation,all patients n = 20,65%
same,grade 3 TRAE: decreased appetite,all patients n = 20,5%
same,grade 3 TRAE: decreased blood sodium,all patients n = 20,5%
same,grade 3 TRAE: decreased platelet count,all patients n = 20,10%
same,grade 3 TRAE: elevated transaminase,all patients n = 20,5%
same,grade 3 TRAE: hypertension,all patients n = 20,5%
same,grade 3 TRAE: leukopenia,all patients n = 20,5%
same,grade 3 TRAE: stomatitis,all patients n = 20,5%
same,patients with at least one adverse event (AE),all patients n = 20,95%
same,patients with grade 3 TRAEs,all patients n = 20,15%
same,patients with treatment-related adverse events (TRAEs),all patients n = 20,80%
same,recommended dose for further study,in vivo,60~100 mg QD
same,MTD,oral QD,100 mg

# — article PMC9632963, “Preclinical characterization and phase I clinical trial of CT053PTSA targets MET, AXL, and VEGFR2 in patients with advanced solid tumors” (Frontiers in Immunology, 2022)
